In PMC7311426, “An amphipathic peptide with antibiotic activity against multidrug-resistant Gram-negative bacteria” (Nature Communications, 2020):
≈ marks a conversion by molar mass, not a printed value. Read-outs that look alike come from different tables or passages of the source. Residues, ends and D or L forms follow the SMILES beside them.

Tests used:
[1] = in vitro; settings: human
[2] = system: HepG2 liver hepatocellular carcinoma cells; test: in vitro
[3] = system: HK-2 human kidney proximal tubule cells; test: in vitro
[4] = system: HEK-293 human embryonic kidney cells; test: in vitro
[5] = system: L. monocytogenes; test: microbe, parasite or virus in culture
In short: (§1)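 MICs were scored by eye after 18-20 h static incubation at 37 °C, with bacteria at 5 × 10^5 CFU mL^−1 in MHB. Peptides were serially diluted 2-fold over 12 points, top 128 or 64 μg mL^−1. CAMHB (CLSI) and 1% agarose-MHB variants were also run, at least six replicates.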

[6] = system: C. albicans; test: microbe, parasite or virus in culture
[7] = system: P. aeruginosa; test: microbe, parasite or virus in culture
In short: as §1

[8] = system: A. baumannii; test: microbe, parasite or virus in culture
In short: as §1

[9] = system: K. pneumoniae; test: microbe, parasite or virus in culture
In short: as §1

[10] = system: B. subtilis; test: microbe, parasite or virus in culture
In short: as §1

[11] = system: S. enterica Typhi; test: microbe, parasite or virus in culture; settings: Typhi
In short: as §1

[12] = system: C. neoformans; test: microbe, parasite or virus in culture
[13] = system: human erythrocytes (HRBC); format: cell-based
[14] = system: E. coli ATCC 25922; test: microbe, parasite or virus in culture; format: cell-based, Escherichia coli; settings: ATCC 25922
In short: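 Broth microdilution MIC in Mueller Hinton broth, 12-point 2-fold series from 128 or 64 down to 0.06 or 0.03 μg mL^−1, 5 × 10^5 CFU mL^−1 inoculum. Read visually after 18-20 h at 37 °C without shaking; n ≥ 6. Additional tests in CAMHB, and in MHB with 1% agarose.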

[15] = system: P. aeruginosa ATCC 27853; test: Murine pneumonia model, aerosolized treatment; format: in vivo, P. aeruginosa in CD1 mice; settings: lung burden; Tobramycin 4.2mg/mL 20 min; group 9
Method: Peritonitis and UTI murine models were performed at the Department of Microbiology & Infection Control, Statens Serum Institute, Copenhagen, Denmark, under approval by the National Committee of Animal Ethics, Denmark, and adhered to the standards of EU Directive 2010/63/EU. The mouse pneumonia model was performed by Evotec Ltd, United Kingdom, under UK Home Office Licenses and with local ethical committee clearance. All animal studies were contracted by Adenium Biotech ApS.
Peptides were prepared in Ringer’s acetate pH 6.0 (vehicle) at 34 mg mL^−1. Comparator antibiotics included meropenem (Meronem®, AstraZeneca), polymyxin B sulfate (Sigma) and tobramycin (Novartis).
P. aeruginosa pneumonia in vivo model was prepared as follows: male CD1 mice were immunosuppressed with cyclophosphamide 200 mg kg^−1 on day −4 and 150 mg kg^−1 on day −1. […] Mouse weights were recorded once-daily following infection to ensure animals remained within ethical limits and to monitor efficacy of treatment. All mice remaining in the study at 34 h post infection were euthanized and the burden of P. aeruginosa in the lungs was determined. […] The lung homogenates were diluted appropriately then quantitatively cultured on to Pseudomonas-selective agar and incubated at 37 °C for 24 h before the number of colonies was counted. […]

[16] = system: human primary hepatocytes; test: Cell viability, human primary hepatocytes (Eurofins Panlabs); format: cell-based; settings: Homo sapiens, Hepatocyte; plateable cryopreserved hepatocytes, alamarBlue, 24 h 37 °C, fluorimetry; 8-point 0.1–300 μM
Method: Cell viability of human primary hepatocytes against AA139 was assessed by fluorometric readout of Alamar Blue following 24 h incubation at 37 °C of human plateable cryopreserved hepatocytes and AA139 as an 8-point dose response, 0.1–300 μM, as described by Nociari et al.[41]. Cell viability was calculated as a percentage of the control cells and plotted versus concentration using Prism 8 Software. The IC50 value was determined by non-linear regression analysis of the concentration–response curve using the Hill equation. Assay was performed by Eurofins Pharma Discovery Services (Panlabs), St Charles, MO, USA, study number 100049990. Source data are provided as a source data file.

## CC(C)[C@@H]1NC(=O)CNC(=O)[C@H](CC(N)=O)NC(=O)[C@H](CCCNC(=N)N)NC(=O)[C@H](Cc2ccc(O)cc2)NC(=O)[C@H](C(C)C)NC(=O)[C@@H]2CSSC[C@H](NC(=O)[C@H](C(C)C)NC(=O)[C@H](CCCNC(=N)N)NC1=O)C(=O)N[C@@H](Cc1ccc(O)cc1)C(=O)N[C@@H](CCCNC(=N)N)C(=O)N[C@@H](CCCNC(=N)N)C(=O)N[C@H](C(=O)N[C@@H](CC(N)=O)C(=O)O)CSSC[C@H](NC(=O)[C@H](Cc1ccccc1)NC(=O)CN)C(=O)N[C@@H](Cc1c[nH]c3ccccc13)C(=O)N[C@@H](Cc1ccc(O)cc1)C(=O)N[C@@H](C(C)C)C(=O)N2 [Arenicin-3] (HELM PEPTIDE1{G.F.C.W.Y.V.C.V.Y.R.N.G.V.R.V.C.Y.R.R.C.N}$PEPTIDE1,PEPTIDE1,3:R3-20:R3|PEPTIDE1,PEPTIDE1,7:R3-16:R3$$$V2.0)
[1]; HEK-293 cells
  CC50 at 24 h: 271 µg/mL (≈ 104 µM)
[1]; HK-2 cells
  CC50 at 24 h: 170 µg/mL (≈ 65.1 µM)
[2]
  CC50 HepG2: >300 µg/mL
  CC50 HepG2, Mean: >300 µg/mL
[2]; human, HepG2 cells, 24 h
  CC50 HepG2: >300 µg/mL
[3]
  CC50 HK2, Mean: 170 µg/mL (≈ 65.1 µM)
[4]
  CC50 HEK293, Mean: 271 µg/mL (≈ 104 µM)
[5]
  BMD MIC: 8 µg/mL
[6]
  BMD MIC: >32 µg/mL
[6]; 24 h
  BMD MIC: >64 µg/mL
[7]
  BMD MIC: 1 µg/mL
[8]
  BMD MIC: 1 µg/mL
[9]
  BMD MIC: 1 µg/mL
[10]
  BMD MIC: 8 µg/mL
[11]
  BMD MIC: 2 µg/mL
[12]
  BMD MIC: 1 µg/mL
[13]
  Heamolysis HC10, Mean: 204 µg/mL
[14]
  MIC, MHB: 1 µg/mL (≈ 0.383 µM)

## NC[C@H]1O[C@H](O[C@H]2[C@H](O)[C@@H](O[C@H]3O[C@H](CO)[C@@H](O)[C@H](N)[C@H]3O)[C@H](N)C[C@@H]2N)[C@H](N)C[C@@H]1O [tobramycin]
[7]; Pseudomonas aeruginosa, ATCC27853, read-out: MIC against P. aeruginosa (ATCC 27853), as stated for the pneumonia model
  MIC: 0.5 to 2 µg/mL (≈ 1.07 to 4.28 µM)
[15]
  Log Group Geometric mean (CFU/g): 2.68 CFU/g

## CN(C)CCCN1c2ccccc2Sc2ccc(Cl)cc21 [Chlorpromazine, reference compound]
[16]
  IC50: 35 µM
